{"source": "patent EP4717275A1", "about": "“ANTI-LUNG CANCER COMBINED DRUG AND USE THEREOF” (Gunagdong Yinzhu Pharmaceutical Technology Co., Ltd, priority 2023, dated 2024)", "key": {"NCI-H2228 cell": {"tested_on": "NCI-H2228 cell", "test": "CCK8 proliferation assay with combination index analysis", "format": "cell-based, human", "details": "CAI alone", "protocol": "CCK8 method was used to evaluate the effect of the drugs towards proliferation of lung cancer cell line (NCI-H2228 cell). The cellular viability with different concentration of drug was assayed and the 50% inhibitory concentration was calculated.\nEmerge NCI-H2228 cells (purchased from American Type Culture Collection (ATCC, Manassas, VA, USA)) from liquid nitrogen and thaw in a 37°C water bath. After thawing, culture cells in 1640 medium.\nWhen cell density reached 90% confluence in culture medium, cells were digested with 0.25% trypsin and resuspended. After cell growth stabilized, cells in the logarithmic growth phase were harvested and counted using a cell counter and it was ensured that viability exceeded 85% for all cell lines.\nAdjust cell concentration by diluting with culture medium. Add 100 µL of cell suspension to a 96-well plate to achieve a density of 3000 cells/well. Add 100 µL of PBS buffer to the wells around the cell-seeded wells.\nIncubate the 96-well plate at 37°C, 5% CO2, and 95% humidity overnight.\nRemove the cell culture plate from the incubator, aspirate the culture medium, and add the prepared drug-containing medium. Incubate at 37°C, 5% CO2, and 95% humidity for 72 hours.\nAdd 10 µL of CCK-8 solution to each well of the 96-well plate. Incubate the plate in the cell culture incubator for 1.5 hours. Measure the absorbance at 450 nm using a microplate reader.\nAnalyze data using GraphPad Prism 5.0 software. Fit the data using nonlinear S-curve regression to generate a dose-response curve and calculate the IC50 value. [formula]\nThe analysis of the combination index of the compound was performed using the median effect principle. The formula for the combination index of two compounds is: CI = (D)1/(Dx)1 + (D)2/(Dx)2 [formula]\nWhere: • (D)1---- The concentration of Compound 1 when compound 1 was used with another compound and the effect X was generated; • (D)2---- The concentration of Compound 2 when compound 2 was used with another compound and the effect X was generated; • (Dx)1---- The concentration of Compound 1 when compound 1 was used alone and the effect X was generated; • (Dx)2---- The concentration of Compound 2 when compound 2 was used alone and the effect X was generated.\nThe CI value enables quantitative assessment of the nature and strength of interactions between different compounds (Table 2). Interaction strength is measured using the weighted average CI (CIwt), calculated by the formula: CIwt = (CI50+2CI75+3CI90+4CI95)/10 [formula]\nWhere: • CI50 ---- CI value at EC50 (concentration achieving 50% effect) • CI75, CI90, and CI95 follow the same principle, representing the CI values at EC75, EC90, and EC95, respectively.\nEvaluation of the combination effect: CI value is used to evaluate the combination effect, and the judgment method is shown in Table 7. Table 7 Judgment criteria of the results"}, "[1]": {"tested_on": "human lung cancer NCI-H2228 xenografts", "test": "Therapeutic effect in vivo on NCI-H2228 xenografts in nude mice", "set-up": "species or system BALB/c Nude mice", "details": "PO; for Relative tumor proliferation rate(%) Day 21: %T/CRTV; for Tumor growth inhibition rate(%) Day 21: %TGITV from tumor volume vs control; for Tumor growth inhibition rate(%) Day 21 / Tumor volume (mm^3,Mean±SEM) Day 21 / Relative tumor volume Day 21: QD× 21; for Tumor inhibition rate(%) Day 21: %TGITW from tumor weight vs control; for Tumor volume (mm^3,Mean±SEM) Day 21: QD×21, dose per group; for Relative tumor volume Day 21: RTV = Vt/V0, Mean ± SEM", "protocol": "BALB/c Nude mice, female, 8-10 weeks old, 18-20g. The variation of the body weight is ±20% around average body weight. 80 mice were inoculated and 60 mice were grouped.\nTable 9 Experimental design of therapeutic effect of the drugs in vivo\nNCI-H2228 cells were cultured in RPMI 1640 medium supplemented with 10% FBS and maintained in a 37°C, 5% CO2 humidified incubator.\nLog-phase NCI-H2228 cells were harvested, resuspended in RPMI 1640 basal medium containing 50% Matrigel, and adjusted to a concentration of 2 × 10^7 cells/mL. Under aseptic conditions, 0.1 mL of the cell suspension was injected subcutaneously into the right flank of mice at a concentration of 2 × 10^6 cells/0.1 mL/mouse.\nWhen the mean tumor volume reached approximately 150 mm^3, animals were randomly grouped based on tumor volume, ensuring inter-group tumor volume variation was less than 10% of the mean.\nThe grouping day was designated as Day 0, and administration commenced according to animal body weight.\nThe same as the therapeutic effect evaluation experiments for Examples 1-2 and Comparative Examples 1-3."}, "mouse melanoma": {"tested_on": "mouse melanoma", "details": "transplanted tumors, dexamethasone by intraperitoneal injection; cited from earlier work"}, "[2]": {"details": "QD×21, listed as Comparative Example 5"}, "[3]": {"details": "QD×21, listed as Comparative Example 6"}, "[4]": {"details": "QD×21, listed as Comparative Example 5, CAI, 20mg /kg"}, "[5]": {"details": "QD×21, listed as Comparative Example 6, CAI, 40mg /kg"}}, "note": "“And” between values parts separate entries of the source, which are not always exact repeats. Equal values may be shown once. Read-outs that look alike come from different tables or passages of the source. Marks after values point to notes of the source that are not given here.", "data": [{"compound": "NC(=O)c1nnn(Cc2cc(Cl)c(C(=O)c3ccc(Cl)cc3)c(Cl)c2)c1N", "note": "[CAI, 5-Amino-1-[3,5-dichloro-4-(4-chlorobenzoyl chloride)benzyl]-1H-1,2,3-triazole-4-benzamide]", "values": [{"measurement": "IC50", "setting": "NCI-H2228 cell; single plates 1-3, 72 hours, read-out: IC50 (CAI)", "value": "22.9 µM and 23 µM"}, {"measurement": "IC50", "setting": "NCI-H2228 cell; Homo sapiens, NCI-H2228, 72 h, average of 3 plates, read-out: IC50 (CAI)", "value": 22.8, "unit": "µM"}, {"measurement": "IC50", "setting": "NCI-H2228 cell; Homo sapiens, NCI-H2228, 72 h, single plates 1-3, read-out: IC50 (CAI)", "value": 22.4, "unit": "µM"}, {"measurement": "Relative tumor proliferation rate(%) Day 21", "setting": "[1]; [2]", "value": 69.94, "unit": "%"}, {"measurement": "Relative tumor proliferation rate(%) Day 21", "setting": "[1]; [3]", "value": 68.46, "unit": "%"}, {"measurement": "Tumor growth inhibition rate(%) Day 21", "setting": "[1]; [4]", "value": 33.39, "unit": "%"}, {"measurement": "Tumor growth inhibition rate(%) Day 21", "setting": "[1]; [5]", "value": 34.01, "unit": "%"}, {"measurement": "Tumor inhibition rate(%) Day 21", "setting": "[1]; [2]", "value": 39.40, "unit": "%"}, {"measurement": "Tumor inhibition rate(%) Day 21", "setting": "[1]; [3]", "value": 42.96, "unit": "%"}, {"measurement": "Tumor volume (mm^3,Mean±SEM) Day 21", "setting": "[1]; listed as Comparative Example 5, CAI, 20mg /kg", "value": "979.25± 64.93* mm^3"}, {"measurement": "Tumor volume (mm^3,Mean±SEM) Day 21", "setting": "[1]; listed as Comparative Example 6, CAI, 40mg /kg", "value": "970.11± 102.46* mm^3"}, {"measurement": "Tumor weight (g,Mean±SEM) Day 21", "setting": "[1]; [2]", "value": "0.529 ± 0.055", "unit": "g"}, {"measurement": "Tumor weight (g,Mean±SEM) Day 21", "setting": "[1]; [3]", "value": "0.498 ± 0.059", "unit": "g"}, {"measurement": "Relative tumor volume Day 21", "setting": "[1]; [4]", "value": "6.12±0.29"}, {"measurement": "Relative tumor volume Day 21", "setting": "[1]; [5]", "value": "5.99±0.48"}, {"measurement": "inhibition rate", "setting": "mouse melanoma", "value": 39.8, "unit": "%"}]}]}
